The subject of data set [1] is rat models with a hand-foot skin reaction. The data set can be described thus: rat models with a hand-foot skin reaction. Type of data set: in vivo, SD rats. As for the experimental part: After adaptive feeding for one week, SD rats (with a body weight of approximately 200 g) were randomly divided into groups with balanced body weight, with 12 rats in each group. Modeling drugs (including sorafenib, erlotinib, afatinib, and osimertinib) were respectively dissolved in a solution containing 5% of DMSO, 45% of PEG400, and 50% of H2O, and the modeling drugs were diluted to required concentrations and then administered once daily by gavage at doses shown in Table 3. After administration by gavage for 1 hour, 0.05 g of ointments containing different mass proportions of test compounds were evenly applied to left paws of the rats, a blank matrix ointment was applied to right paws of the rats to serve as a self-control, and no ointment was applied to the rats in a blank control group. After drug application, four limbs were continuously immobilized for 2 hours, then wiped with clean water to remove the residual drugs, removed from immobilization, and restored to free movement. The modeling drugs, the blank matrix ointment, and the ointments containing the test compounds were all administered once daily. After continuous administration for 30 days, the rats were euthanized, and paw plantar skin tissues were collected, fixed in 10% neutral formalin, […]. The ointments for the test compounds were prepared by mixing the compounds, white beeswax, white petrolatum, and light liquid paraffin in specific ratios (weight ratios of 3 ointments were respectively 1:18:58:23, 3:18:57:22, and 10:20:40:30). The blank matrix ointment was prepared by mixing white beeswax, white petrolatum, and light liquid paraffin in a specific ratio (weight ratio of 18:60:22).
Tissue staining: After dewaxing and rehydration, the paw plantar skin tissue sections of the above rats were stained in a hematoxylin solution for several minutes, cleaned, and placed in 1% acid alcohol for soaking until the sections faded to light blue-red. After cleaning with running water for 5 minutes, the sections were stained with eosin for 2-3 minutes, cleaned to remove excess dyes, dehydrated, then permeabilized by adding xylene for several minutes, and sealed and fixed with a neutral resin. The stratum corneum was observed under an optical microscope, and the thickness of the epidermal stratum corneum was measured using Dmetrix software.
Immunohistochemical staining: After dewaxing and hydration, the paw plantar skin tissue sections of the above rats were incubated with 3% H2O2 at room temperature for 30 minutes and blocked with 10% goat serum for 30 minutes after antigen retrieval. A KRT1 antibody (Abcam, ab93652) and a Loricrin antibody (Abcam, ab183646) were added dropwise, the sections were incubated overnight at 4°C, and an HRP secondary antibody (ZSGB-BIO, PV-6001) and a DAB kit (ZSG-BIO, ZLI9017) were added for color development. The sections were re-stained with hematoxylin, cleaned, and sealed and fixed with a neutral resin, and the expression amounts of KRT1 and Loricrin were observed under an optical microscope.
An incidence rate calculation method involves a proportion of animals in each group meeting the above criteria for determining successful modeling, that is, incidence rate = (number of successfully modeled rats/total number of rats in the group)*100%. […]

A short description of data set [2]: stability of crystal forms (XRPD, HPLC, color). The following applies: for Crystal form: XRPD. The data set is classed as physicochemical. As for the experimental part:
A 2θ scanning angle of the sample was 3°-40°, a scanning step size was 0.02°, and a scanning time per step was 0.12 s/step. An optical tube voltage and a current were 40 kV and 40 mA, respectively. During sample preparation, an appropriate amount of the sample was placed on a sample tray and flattened with a tool such as a glass slide to ensure a smooth and even surface.
An Agilent 1260 infinityII binary pump was used for solubility and stability testing.
The stability of samples under these conditions was detected by XRPD and HPLC, and whether the samples had color changes was observed.
A certain amount of the crystal form C of the compound of formula (I) was weighed and placed in an open container at 25°C/92.5%RH for 1 week. A certain amount of the crystal form C of the compound of formula (I) was weighed and placed in a closed container at 60°C for 1 week. The stability of samples under these conditions was detected by XRPD and HPLC, and whether the samples had color changes was observed. Table 16 Stability test results of the crystal form C of the compound of formula (I)
A certain amount of the crystal form D of the compound of formula (I) was weighed and placed in an open container at 25°C/92.5%RH for 1 week. A certain amount of the crystal form D of the compound of formula (I) was weighed and placed in a closed container at 60°C for 1 week. The stability of samples under these conditions was detected by XRPD and HPLC, and whether the samples had color changes was observed. Table 17 Stability test results of the crystal form D of the compound of formula (I)
A certain amount of the crystal form E of the compound of formula (I) was weighed and placed in an open container at 25°C/92.5%RH for 1 week. A certain amount of the crystal form E of the compound of formula (I) was weighed and placed in a closed container at 60°C for 1 week. The stability of samples under these conditions was detected by XRPD and HPLC, and whether the samples had color changes was observed. Table 18 Stability test results of the crystal form E of the compound of formula (I)

A short description of data set [3]: hygroscopicity by dynamic vapor sorption (DVS). The data set is classed as physicochemical. To be noted: for 1st adsorption Percentage of weight change / 1st desorption Percentage of weight change / 2nd adsorption Percentage of weight change / 2nd desorption Percentage of weight change: 40-0-95-0-40%RH, 240 min per step. The protocol:
ProUmid SPSx-1µ Advance was used for analysis of a sample. The sample to be tested was approximately in an amount of 5-50 mg. A temperature in a test chamber was controlled at 25±1°C, a relative humidity cycle was […], a step size was 10%, an equilibrium time was 240 minutes per step, and mass data was recorded every 20 seconds.
A DVS cycle was 40-0-95-0-40%RH. XRPD detection was performed on samples after the DVS testing to determine whether crystal form transformation occurred.

Where [4] appears, read: modeling drug alone by gavage once daily 30 days (Sorafenib 100, Erlotinib 70, Afatinib 50, Osimertinib 60 mg/kg), no test compound.

With `CN(C)C/C=C/C(=O)Nc1cc2c(Nc3ccc(F)c(Cl)c3)ncnc2cc1O[C@H]1CCOC1` [Afatinib, afatinib, reference compound], in data set [1] (SD rats, once daily by gavage: sorafenib 100, erlotinib 70, afatinib 50, osimertinib 60 mg/kg), the “successful modeling rates for the hand-foot skin reaction” value is 66.7%. In data set [1] (immunohistochemical staining, successfully modeled rats, modeling drug alone), the “KRT1 and Loricrin in tissues” value is recorded as “significantly increased”. Moreover, in data set [1] (setting [4]), the “Incidence rate Left paw” value is reported as 8/12 (66.7%) and the “Incidence rate Right paw” value is given as 8/12 (66.7%). Further, the “stratum corneum thickness of the paw plantar skin” value in data set [1] (successfully modeled rats, modeling drug alone, vs normal rats) is “significantly higher than that of normal rats”.

In the case of `NC(=O)[C@H]1CCCc2c1[nH]c1ccc(Cl)cc21` [Crystal form A, (S)-6-chloro-2,3,4,9-tetrahydro-1H-carbazole-carboxamide], the Color result in data set [2] (25°C/92.5%RH, open, 1 week) was “No change”; in data set [2] (60°C, closed, 1 week) it was “No change”. Further, the “Degradation (%)” value is given as “None” in data set [2] (25°C/92.5%RH, open, 1 week) and “None” in data set [2] (60°C, closed, 1 week). Besides, the “Purity (%)” value in data set [2] (25°C/92.5%RH, open, 1 week) came out at 99.8%; in data set [2] (60°C, closed, 1 week) it was 99.8%; in data set [2] (Initial) it was 99.8%. Moreover, the “Hygroscopicity Conclusion” value in data set [3] (DVS at 25°C, Table 15) is reported as “Slight hygroscopicity”. In addition, the “1st adsorption Percentage of weight change” value came to 0.3% in data set [3] (Relative humidity 0% at 25°C); 0.1% in data set [3] (Relative humidity 10% at 25°C); 0.3% in data set [3] (Relative humidity 20% at 25°C); 0.3% in data set [3] (Relative humidity 30% at 25°C); 0.1% in data set [3] (Relative humidity 40% at 25°C); 0.0% in data set [3] (Relative humidity 50% at 25°C). Also, the “1st adsorption Percentage of weight change” value came to 0.4% in data set [3] (Relative humidity 60% at 25°C); 0.4% in data set [3] (Relative humidity 70% at 25°C); 0.5% in data set [3] (Relative humidity 80% at 25°C); 0.5% in data set [3] (Relative humidity 90% at 25°C); 0.7% in data set [3] (Relative humidity 95% at 25°C). In addition, the “1st desorption Percentage of weight change” value was found to be 0.3% in data set [3] (Relative humidity 0% at 25°C); 0.3% in data set [3] (Relative humidity 10% at 25°C); 0.1% in data set [3] (Relative humidity 20% at 25°C); 0.1% in data set [3] (Relative humidity 30% at 25°C); 0.3% in data set [3] (Relative humidity 40% at 25°C). Further, the “2nd adsorption Percentage of weight change” value came out at 0.2% in data set [3] (Relative humidity 0% at 25°C); 0.3% in data set [3] (Relative humidity 10% at 25°C); 0.3% in data set [3] (Relative humidity 20% at 25°C); 0.1% in data set [3] (Relative humidity 30% at 25°C); 0.3% in data set [3] (Relative humidity 40% at 25°C). For the same molecule, the “2nd desorption Percentage of weight change” value was 0.2% in data set [3] (Relative humidity 0% at 25°C); 0.3% in data set [3] (Relative humidity 10% at 25°C); 0.2% in data set [3] (Relative humidity 20% at 25°C); 0.3% in data set [3] (Relative humidity 30% at 25°C); 0.4% in data set [3] (Relative humidity 40% at 25°C); 0.1% in data set [3] (Relative humidity 50% at 25°C). In addition, the “2nd desorption Percentage of weight change” value in data set [3] (Relative humidity 60% at 25°C) worked out at 0.4%; in data set [3] (Relative humidity 70% at 25°C), 0.4%; in data set [3] (Relative humidity 80% at 25°C) it was 0.2%; in data set [3] (Relative humidity 90% at 25°C) it was 0.6%; in data set [3] (Relative humidity 95% at 25°C), 0.7%. In addition, the “XRPD after DVS testing” value in data set [3] (after DVS cycle 40-0-95-0-40%RH at 25°C) is recorded as “Crystal form A”. For the same molecule, in data set [3] (from 40% to 95%RH, 25°C), the water absorption came to 0.6%.

For `NC(=O)[C@H]1CCCc2c1[nH]c1ccc(Cl)cc21` [Crystal form C, (S)-6-chloro-2,3,4,9-tetrahydro-1H-carbazole-carboxamide], the Color entry was “No change” in data set [2] (25°C/92.5%RH, open, 1 week) and “Changed” in data set [2] (60°C, closed, 1 week). Further, the “Degradation (%)” value was determined as 0.6% in data set [2] (25°C/92.5%RH, open, 1 week) and 0.1% in data set [2] (60°C, closed, 1 week). For the same molecule, the “Purity (%)” value in data set [2] (25°C/92.5%RH, open, 1 week) came to 99.1%; in data set [2] (60°C, closed, 1 week), 99.6%; in data set [2] (Initial), 99.7%.

Take `NC(=O)[C@H]1CCCc2c1[nH]c1ccc(Cl)cc21` [Crystal form D, (S)-6-chloro-2,3,4,9-tetrahydro-1H-carbazole-carboxamide]: the Color entry in data set [2] (25°C/92.5%RH, open, 1 week) is listed as “No change”; in data set [2] (60°C, closed, 1 week), “Changed”. The “Degradation (%)” value in data set [2] (25°C/92.5%RH, open, 1 week) turned out to be 0.6%; in data set [2] (25°C/92.5%RH, open, 1 week, listed as crystal form D), 0.6%; in data set [2] (60°C, closed, 1 week) it was 1.1%; in data set [2] (60°C, closed, 1 week, listed as crystal form D), 1.1%. The “Purity (%)” value is on record as 99.2% in data set [2] (25°C/92.5%RH, open, 1 week); 98.7% in data set [2] (60°C, closed, 1 week); 99.8% in data set [2] (Initial). The Crystal form result in data set [2] (60°C, closed, 1 week) is on record as “D+F”.

`NC(=O)[C@H]1CCCc2c1[nH]c1ccc(Cl)cc21` [Crystal form E, (S)-6-chloro-2,3,4,9-tetrahydro-1H-carbazole-carboxamide]: the Color result in data set [2] (25°C/92.5%RH, open, 1 week) was “No change”; in data set [2] (60°C, closed, 1 week), “Changed”. For the same molecule, the “Degradation (%)” value is listed as 0.2% in data set [2] (25°C/92.5%RH, open, 1 week); 0.2% in data set [2] (25°C/92.5%RH, open, 1 week, listed as crystal form E); 3.0% in data set [2] (60°C, closed, 1 week); 3.0% in data set [2] (60°C, closed, 1 week, listed as crystal form E). Also, the “Purity (%)” value in data set [2] (25°C/92.5%RH, open, 1 week) amounted to 99.2%; in data set [2] (60°C, closed, 1 week), 96.4%; in data set [2] (Initial), 99.4%. In data set [2] (60°C, closed, 1 week), the Crystal form entry was “E+F”.

Regarding `C#Cc1cccc(Nc2ncnc3cc(OCCOC)c(OCCOC)cc23)c1` [Erlotinib, erlotinib, reference compound], in data set [1] (rat, in vivo), the “KRT1 and Loricrin in tissues” value is reported as “significantly increased”; the “stratum corneum thickness of the paw plantar skin” value is given as “significantly higher than that of normal rats”.

Source of the values: EP4782431A1 (Suzhou Merna Therapeutics Co. Ltd, priority 2023, dated 2025).
